Columns and labels:
Assay type in all cases: cell-based, Leishmania (L.) mexicana
[1] = tested on: L. mexicana promastigotes; experiment: Growth studies, 24 h promastigote culture
Experimental: Preliminary investigations into the mechanism of action for compounds (S)-9a, (S)-9b and (S,R)-11 were carried out using L. mexicana promastigotes. Light microscopy-based techniques were employed to further explore compound activity in a different, related Leishmania species. […] A solvent-only control using 0.1% (v/v) DMSO led to no significant effects. Cell cultures were examined by light microscopy to identify any morphological changes resulting from compound treatment (Figure 2B). […] Cells treated with the BI and BBI compounds develop a changed morphology with a spherical cell body or shortened flagellum. This effect is observed in 25% of the population for compound (S)-9a, to a greater extent (66%) for (S)-9b, and 27% for compound (S,R)-11. An abnormal number and position of Ks and Ns were often observed, with Ks and Ns sometimes less well-defined by Hoechst 33342 staining.
(§1) NCTC cells (6 × 10^4/well) were added to a 96-well plate. Treatments of the cells with selected compounds (serially diluted 1.5 to 200 μM) was performed in a humidified incubator for 96 h at 37 °C and with 5% CO2.
(§2) The MTT colorimetric method was used to determine the 50% cytotoxic concentration (CC50) and the selectivity index (CC50 against NCTC cells/IC50 against amastigotes).15 […]
(§3) […] […] Statistical significance was derived from a two-tailed T-test.
(§4) The Graph Pad Prism 5 software was used to perform sigmoid dose-response curves for the determination of […]
(§5) […] At 6 h and 24 h post-treatment, a 1 mL aliquot was taken for imaging. The cell cycle experiment was preformed twice independently.
(§6) Generation of mNG::RAD51 tagged cell line
(§7) The single-stranded DNA-binding protein RAD51, associated with DNA Repair, LmxM.28.0550 was tagged with endogenous fluorescent protein mNeonGreen (mNG) at the N-terminus. […]
Primers for constructs and sgRNA were designed using LeishGEdit (http://www.leishGEdit.net).
PCR was at 94 °C for 5 min, followed by 35 cycles at 94 °C (15 sec), 65 °C (15 sec), 72 °C (2 min) then finally 72 °C (1 min). […]

[2] = tested on: L. mexicana promastigotes; experiment: Cell cycle studies (K/N counts); conditions: 50 μM, 6 and 24 h
Experimental: To investigate whether the morphological changes are a consequence of cell cycle interference, we analyzed the cell cycle over a 24 h period. Untreated L. mexicana promastigotes typically have a doubling time of 7.1 h, with each of the DNA-containing organelles replicating once in the order […], before cytokinesis, leading to two daughter cells.[37],[38] […] Cells treated with (S)-9a at 50 μM were studied after 6 and 24 h of treatment, and found to deviate from the typical cell cycle, giving rise to abnormal categories of cells with incorrectly replicated organelles (Figure 2C). For around 15% of the cells in 1K1N there was the presence of an eXtra structure (1K1N1X) that could not be clearly assigned as K or N, generally toward the posterior end of the cell body.
as §1, §2, §3, §4

mNG::RAD51 promastigotes = experiment: mNG::RAD51 nuclear foci studies; conditions: 50 μM, up to 24 h
Text: DSBs often lead to cytotoxicity, which could be an explanation for the observed compound activity.[44]−[46]Leishmania employ the RAD51 DNA recombinase protein as part of its DNA repair machinery to fix naturally occurring nuclear DSBs via homologous recombination.[47]−[50] Using a CRISPR/Cas9 gene editing strategy,[51] we generated a genetically modified cell line with mNeonGreen tagged RAD51. This would allow observation of fluorescent RAD51 protein recruitment to foci in the nucleus corresponding to DSB accumulation, as has been shown in T. brucei.[52],[53] Phleomycin was used as a positive control to induce DSBs,[54] which led to the expected observation of accumulation of RAD51 as green dots in the nucleus in 80% of cells from as early as 2 h posttreatment (Figure 2D). […] We can therefore conclude that the BI compounds tested are unlikely to act via DSBs (albeit this methodology is sensitive only to DSBs in nuclear DNA), and another mechanism of cell cycle disruption is responsible for the breakdown in the healthy cell cycle.
as §1, §2, §3, §4, §5, §6, §7
Primers for constructs and sgRNA were designed using LeishGEdit (http://www.leishGEdit.net). […]

Row | Structure (SMILES) | potency in growth inhibition relative to (S)-9a and (S)-9b [1] [fold] | concentration sufficient to inhibit growth over 24 h [1] [µM] | cells in 1K1N with an extra structure (1K1N1X) [2] | proportion of cells in the dividing stages (Non-1K1N) ([2]; versus the expected 10%) | RAD51 nuclear foci (mNG::RAD51 promastigotes)
1 | COc1cc2c(cc1OC)[C@@H](Cc1ccc(Oc3cc(C[C@H]4c5cc(OC)c(OC)cc5CCN4C)ccc3OC)cc1)N(C)CC2 [(S,R)-11, (−)-O,O′-dimethylgrisabine] | 10 | – | – | – | –
2 | COc1cc2c(cc1OC)[C@H](Cc1ccc(Br)cc1)N(C)CC2 [(S)-9a] | – | 50 | around 15% | doubled | no RAD51 nuclear foci
3 | COc1cc2c(cc1OC)[C@H](Cc1ccc(OC)c(OCc3ccccc3)c1)N(C)CC2 [(S)-9b] | – | 50 | – | – | no RAD51 nuclear foci

From publication PMC10900488, “Synthesis and Evaluation of (Bis)benzyltetrahydroisoquinoline Alkaloids as Antiparasitic Agents” (JACS Au, 2024)
